Reference: ChEMBL document CHEMBL1139541 (J Med Chem, 2005)

Columns and labels:
[1] = biological target: T1, Melatonin receptor type 1B (Homo sapiens) (UniProt P49286); assay: Intrinsic activity in [35S]GTP-gamma-S, binding at human melatonin receptor MT2 relative to melatonin; type: functional
T1 sequence (whole entry): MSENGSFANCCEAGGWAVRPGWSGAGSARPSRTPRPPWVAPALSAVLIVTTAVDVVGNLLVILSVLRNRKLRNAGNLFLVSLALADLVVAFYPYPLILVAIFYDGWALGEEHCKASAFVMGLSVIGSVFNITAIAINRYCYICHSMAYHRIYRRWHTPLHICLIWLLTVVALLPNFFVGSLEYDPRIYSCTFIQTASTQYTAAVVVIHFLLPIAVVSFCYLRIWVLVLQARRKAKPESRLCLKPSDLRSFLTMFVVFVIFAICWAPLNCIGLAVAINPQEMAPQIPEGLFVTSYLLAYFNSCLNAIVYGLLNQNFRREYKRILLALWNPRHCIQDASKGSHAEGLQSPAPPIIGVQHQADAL

[2] = biological target: Melatonin receptor type 1A (Homo sapiens, UniProt P48039); assay: Inhibition of 2-[125I]iodomelatonin binding to human melatonin receptor type 1A (MT1) expressed in […] cells; type: cell-based
[3] = biological target: T2, Melatonin receptor type 1B (Homo sapiens, UniProt P49286); assay: Inhibition of 2-[125I]iodomelatonin binding to human melatonin receptor MT2 expressed in […] cells; type: cell-based
T2 sequence (P49286 whole entry): T1 sequence (whole entry)

Melatonin receptor type 1A, sequence (P48039 whole entry): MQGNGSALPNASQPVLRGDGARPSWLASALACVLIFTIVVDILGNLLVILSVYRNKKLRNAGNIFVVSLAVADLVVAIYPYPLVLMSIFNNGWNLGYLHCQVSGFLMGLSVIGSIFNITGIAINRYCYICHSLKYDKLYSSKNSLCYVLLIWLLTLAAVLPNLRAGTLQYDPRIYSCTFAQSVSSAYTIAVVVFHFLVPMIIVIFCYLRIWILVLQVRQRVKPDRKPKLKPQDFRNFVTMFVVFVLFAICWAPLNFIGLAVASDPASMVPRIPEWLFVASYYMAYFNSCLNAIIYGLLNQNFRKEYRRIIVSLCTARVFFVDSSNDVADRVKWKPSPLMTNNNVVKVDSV

SMILES | IA [1] | Ki [2] | Ki [3]
CCC(=O)NCc1cc2c(OC)cccc2n1Cc1c(C)cccc1C | 0.16 | > 10000 nM | 6030 nM
CCC(=O)NCc1cc2c(OC)cccc2n1Cc1ccc(Cl)cc1 | 0.01 |  | 
CCC(=O)NCc1cc2c(OC)cccc2n1S(=O)(=O)c1ccccc1 | 0.08 | > 10000 nM | 288 nM
CCC(=O)NCc1cc2c(OC)cccc2n1C(=O)c1ccc(Cl)cc1 | -0.08 | > 10000 nM | 1820 nM

Now from value to compound:

IA [1] | Ki [2] | Ki [3] | SMILES
 | > 1000 nM | 9.77 nM | COc1cc2c(cc1OC)C(CC(c1ccccc1)c1ccccc1)N(C(C)=O)CC2 (centres undefined)
 | 105 nM | 0.0158 nM | CCC(=O)NC1Cc2ccccc2C(c2ccccc2)C1 (centres undefined)
